As usually defined, the EC50 is the midpoint of the concentration-response curve.

This test addresses T1, ΔF508-CFTR (Homo sapiens, UniProt P13569, DEL508-508).
T1 construct: host or cells: CFBE41o-, doxycycline-inducible
In words: CFTR cell surface levels using HRP-tagged ΔF508-CFTR expressing CFBE cells, in the presence of a co-corrector. The format is cell-based. Particulars: HRP-tagged ΔF508-CFTR expressing CFBE cells, in the presence of 3 μM co-corrector; for EC50: read-out: EC50. The source says: Measuring CFTR Cell Surface Levels Using HRP-Tagged AF508-CFTR Expressing CFBE Cells
The HRP-tagged AF508-CFTR cell assay measures the expression of CFTR-ΔF508 at the plasma membrane. CFTR-ΔF508 has a folding defect leading to absence of protein at the plasma membrane. This assay is used to evaluate the capacity of compounds to increase the expression of CFTR-ΔF508 at the plasma membrane. The CFTR-ΔF508 is tagged with HRP (horse radish peroxidase enzyme) within the ECL4 (Extracellular loop 4) of CFTR (Phuan, P.-W. et al. Synergy-based small-molecule screen using a human lung epithelial cell line yields AF508-CFTR correctors that augment VX-809 maximal efficacy. Mol. Pharmacol. 86, 42-51 (2014)). When HRP-tagged AF508-CFTR is present at the plasma membrane, the HRP enzyme activity can be measured. The amount of CFTR-ΔF508 that can be rescued to the plasma membrane is correlated with the amount of functional enzyme that can be measured.
There are several ways to measure the capacity of compounds to rescue CFTR-ΔF508 to the plasma membrane; either compounds are evaluated on their own and the impact on plasma membrane levels is measured or compounds are evaluated in combination with a co-corrector, i.e. a compound that rescues CFTR-ΔF508 to the plasma membrane but rescue can be enhanced by addition of compounds due to a complementary mode of action.
Activity of Compounds in Combination with Co-Corrector:
For this purpose doxycycline-inducible AF508-CFTR-HRP expressing CFBE4lo-cells (obtained from Gergely Lukacs, McGill University) were maintained in MEM (Minimum Essential Medium, Gibco; 31095) supplemented with 10% fetal bovine serum (Hyclone; SV30160.03) under puromycin (3 μg/mL) and G418 selection (0.2 mg/mL). For compound testing, cells were seeded at 4000 cells/well in white 384-well plates (Greiner; 781080) in 50 μL of medium containing 0.5 μg/mL doxycycline and incubated for 68 hours at 37° C., 5% CO2. On day four, 10 μL of test compounds diluted in PBS (phosphate buffered saline) were added to the plates at a final DMSO concentration of 0.1%. In order to measure compound synergy with a co-corrector, 3 μM co-corrector (3-[(2R,4R)-4-({[1-(2,2-difluoro-1,3-benzodioxol-5-yl)cyclopropyl]carbonyl}amino)-7-methoxy-3,4-dihydro-2H-chromen-2-yl]benzoic acid) was added along with test compounds. All compound plates contained negative controls (DMSO) and positive controls (3 μM co-corrector). Cell plates were incubated at 33° C., 5% CO2 for 20 hours. On day five, the cells were washed five times with phosphate-buffered saline, and HRP activity was assayed by the addition of 50 μL/well of HRP substrate (SuperSignal™ West Pico Chemiluminescent Substrate, Thermo Scientific; 34080). After incubation for 15 minutes in the dark, the chemiluminescence was measured using a plate reader (EnVision®, Perkin Elmer). Raw data were normalized to percentage activity values using the equation: 100×(Sample−Negative control)/(Positive control−Negative Control).

T1 sequence (P13569 with tags, fused parts or gaps DEL508-508): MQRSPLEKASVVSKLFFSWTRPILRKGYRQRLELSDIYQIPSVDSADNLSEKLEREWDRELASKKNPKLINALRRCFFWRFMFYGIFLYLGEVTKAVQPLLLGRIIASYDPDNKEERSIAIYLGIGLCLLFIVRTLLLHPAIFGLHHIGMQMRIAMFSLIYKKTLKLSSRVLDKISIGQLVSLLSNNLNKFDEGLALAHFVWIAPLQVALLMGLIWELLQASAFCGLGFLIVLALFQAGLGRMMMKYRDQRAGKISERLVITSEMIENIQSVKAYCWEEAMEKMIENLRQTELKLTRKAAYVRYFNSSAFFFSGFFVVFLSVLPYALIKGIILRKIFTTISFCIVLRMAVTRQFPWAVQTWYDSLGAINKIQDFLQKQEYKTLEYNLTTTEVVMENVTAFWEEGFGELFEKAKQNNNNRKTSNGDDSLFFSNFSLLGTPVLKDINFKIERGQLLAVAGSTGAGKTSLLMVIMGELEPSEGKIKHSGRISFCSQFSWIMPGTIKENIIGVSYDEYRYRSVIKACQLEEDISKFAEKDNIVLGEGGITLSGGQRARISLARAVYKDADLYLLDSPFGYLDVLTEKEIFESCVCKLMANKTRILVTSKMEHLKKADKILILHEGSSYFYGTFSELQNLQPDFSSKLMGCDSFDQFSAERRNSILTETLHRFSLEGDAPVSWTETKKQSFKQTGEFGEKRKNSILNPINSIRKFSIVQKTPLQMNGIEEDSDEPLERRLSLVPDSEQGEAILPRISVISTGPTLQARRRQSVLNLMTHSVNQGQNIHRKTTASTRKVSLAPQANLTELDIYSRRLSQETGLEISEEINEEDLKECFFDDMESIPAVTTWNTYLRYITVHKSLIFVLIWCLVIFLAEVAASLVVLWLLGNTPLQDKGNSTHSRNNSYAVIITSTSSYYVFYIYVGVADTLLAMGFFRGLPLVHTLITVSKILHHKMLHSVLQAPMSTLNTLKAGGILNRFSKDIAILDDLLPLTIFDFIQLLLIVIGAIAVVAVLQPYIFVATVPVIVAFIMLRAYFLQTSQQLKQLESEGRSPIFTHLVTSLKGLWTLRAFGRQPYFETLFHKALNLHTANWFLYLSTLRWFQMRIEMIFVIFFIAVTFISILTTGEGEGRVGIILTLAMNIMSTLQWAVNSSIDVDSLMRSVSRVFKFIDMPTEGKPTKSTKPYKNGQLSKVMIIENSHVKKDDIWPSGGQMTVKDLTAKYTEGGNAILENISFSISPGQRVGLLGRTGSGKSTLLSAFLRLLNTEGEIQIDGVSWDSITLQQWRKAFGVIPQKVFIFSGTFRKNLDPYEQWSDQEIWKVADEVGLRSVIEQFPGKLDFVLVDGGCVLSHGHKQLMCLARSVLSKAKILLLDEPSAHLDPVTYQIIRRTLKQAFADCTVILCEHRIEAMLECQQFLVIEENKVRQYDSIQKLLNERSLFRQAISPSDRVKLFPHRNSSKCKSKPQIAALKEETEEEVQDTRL

Regarding `O=C(O)c1cc(N2C[C@@H](O)[C@H](O)C2)c2c(C3CCC3)nn(-c3ccccc3)c2n1` [compound 445, 3-cyclobutyl-4-[(3R,4R)-3,4-dihydroxypyrrolidin-1-yl]-1-phenyl-1H-pyrazolo[3,4-b]pyridine-6-carboxylic acid], the “% Activation” value is given as 127.85% and the EC50 was greater than 10 µM.

On to `CC(C)c1nn(-c2ccc(F)cc2)c2nc(C(=O)O)cc(N3CCC(C4CCN(C5COC5)CC4)CC3)c12` [compound 752, 1-(4-fluorophenyl)-4-[1′-(oxetan-3-yl)[4,4′-bipiperidin]-1-yl]-3-(propan-2-yl)-1H-pyrazolo[3,4-b]pyridine-6-carboxylic acid], for which the “% Activation” value is on record as 530.9% and the EC50 is 0.104 µM.

As for `CCOCCN1CCC(N2CCN(c3cc(C(=O)O)nc4c3c(C3CCC3)nn4-c3ccccc3)CC2)CC1` [compound 726, 3-cyclobutyl-4-{4-[1-(2-ethoxyethyl)piperidin-4-yl]piperazin-1-yl}-1-phenyl-1H-pyrazolo[3,4-b]pyridine-6-carboxylic acid], the “% Activation” value came to 409.6% and the EC50 turned out to be 0.311 µM.

For the molecule `COc1cc(C(=O)O)nc2c1c(C1CCC1)nn2-c1ccccc1` [compound 584, 3-cyclobutyl-4-methoxy-1-phenyl-1H-pyrazolo[3,4-b]pyridine-6-carboxylic acid], the “% Activation” value came out at 202.2% and the EC50 was 2.88 µM.

For the molecule `CCCCN1CCCN(c2cc(C(=O)O)nc3c2c(C2CCC2)nn3-c2ccccc2)CC1` [compound 710, 4-(4-butyl-1,4-diazepan-1-yl)-3-cyclobutyl-1-phenyl-1H-pyrazolo[3,4-b]pyridine-6-carboxylic acid], the “% Activation” value is on record as 282.6% and the EC50 came to 1.35 µM.

Regarding `CC(O)CN1CCC(N2CCN(c3cc(C(=O)O)nc4c3c(C3CCC3)nn4-c3ccccc3)CC2)CC1` (stereo not shown) [compound 727, 3-cyclobutyl-4-{4-[1-(2-hydroxypropyl)piperidin-4-yl]piperazin-1-yl}-1-phenyl-1H-pyrazolo[3,4-b]pyridine-6-carboxylic acid], the “% Activation” value is given as 348% and the EC50 came to 1.67 µM.

Consider `CCOCC(=O)N1CCN(c2cc(C(=O)O)nc3c2c(C2CCC2)nn3-c2ccccc2)CC1` [compound 696, 3-cyclobutyl-4-[4-(ethoxyacetyl)piperazin-1-yl]-1-phenyl-1H-pyrazolo[3,4-b]pyridine-6-carboxylic acid], for which the “% Activation” value was 346.8% and the EC50 came to 1.67 µM.

Consider `CN(CC1CCOCC1)c1cc(C(=O)O)nc2c1c(C1CCC1)nn2-c1ccccc1` [compound 554, 3-cyclobutyl-4-{methyl[(oxan-4-yl)methyl]amino}-1-phenyl-1H-pyrazolo[3,4-b]pyridine-6-carboxylic acid], for which the “% Activation” value is reported as 365.83% and the EC50 was determined as 1.72 µM.

For the molecule `O=C(O)c1cc(N2CC(N3CCC(N4CCOCC4)CC3)C2)c2c(C3CCC3)nn(-c3ccccc3)c2n1` [compound 725, 3-cyclobutyl-4-{3-[4-(morpholin-4-yl)piperidin-1-yl]azetidin-1-yl}-1-phenyl-1H-pyrazolo[3,4-b]pyridine-6-carboxylic acid], the “% Activation” value was 173.2% and the EC50 worked out at 0.869 µM.

On to `CC(C)c1nn(-c2ccc(F)cc2)c2nc(C(=O)O)cc(N3CCC(C(=O)N4CCN(C)CC4)CC3)c12` [compound 755, 1-(4-fluorophenyl)-4-[4-(4-methylpiperazine-1-carbonyl)piperidin-1-yl]-3-(propan-2-yl)-1H-pyrazolo[3,4-b]pyridine-6-carboxylic acid], for which the “% Activation” value was 270.9% and the EC50 is 1.67 µM.

Regarding `CC(C)c1nn(-c2ccc(F)cc2)c2nc(C(=O)O)cc(N3CC(C4CN(C)CCO4)C3)c12` (stereo not shown) [compound 740, 1-(4-fluorophenyl)-4-[3-(4-methylmorpholin-2-yl)azetidin-1-yl]-3-(propan-2-yl)-1H-pyrazolo[3,4-b]pyridine-6-carboxylic acid], the “% Activation” value turned out to be 194.7% and the EC50 was 0.424 µM.

On to `CN(C)CCCN1CCN(c2cc(C(=O)O)nc3c2c(C2CCC2)nn3-c2ccccc2)CC1` [compound 728, 3-cyclobutyl-4-{4-[3-(dimethylamino)propyl]piperazin-1-yl}-1-phenyl-1H-pyrazolo[3,4-b]pyridine-6-carboxylic acid], for which the “% Activation” value came out at 221.6% and the 50% effective concentration (EC50) came to 1.67 µM.

As for `O=C(O)c1cc(N2CCC3(C2)OCCO3)c2c(C3CCC3)nn(-c3ccccc3)c2n1` [compound 713, 3-cyclobutyl-4-(1,4-dioxa-7-azaspiro[4.4]nonan-7-yl)-1-phenyl-1H-pyrazolo[3,4-b]pyridine-6-carboxylic acid], the “% Activation” value worked out at 243.5% and the EC50 came to 0.659 µM.

With `O=C(O)c1cc(N2CCC[C@@H](N3CCCC3=O)C2)c2c(C3CCC3)nn(-c3ccccc3)c2n1` [compound 697, 3-cyclobutyl-4-[(3R)-3-(2-oxopyrrolidin-1-yl)piperidin-1-yl]-1-phenyl-1H-pyrazolo[3,4-b]pyridine-6-carboxylic acid], the “% Activation” value stood at 217.3% and the EC50 is 1.27 µM.

Regarding `CC(O)CN1CCC(N2CCN(c3cc(C(=O)O)nc4c3c(C(C)C)nn4-c3ccc(F)cc3)CC2)CC1` (stereo not shown) [compound 742, 1-(4-fluorophenyl)-4-{4-[1-(2-hydroxypropyl)piperidin-4-yl]piperazin-1-yl}-3-(propan-2-yl)-1H-pyrazolo[3,4-b]pyridine-6-carboxylic acid], the “% Activation” value came out at 126.1% and the EC50 came to 5 µM.

Consider `CN(C)C(=O)CN1CCN(c2cc(C(=O)O)nc3c2c(C2CCC2)nn3-c2ccccc2)CC1` [compound 559, 3-cyclobutyl-4-{4-[2-(dimethylamino)-2-oxoethyl]piperazin-1-yl}-1-phenyl-1H-pyrazolo[3,4-b]pyridine-6-carboxylic acid], for which the “% Activation” value is listed as 352.47% and the EC50 was 2.05 µM.

In the case of `CC(C)c1nn(-c2ccc(F)cc2)c2nc(C(=O)O)cc(N3CCC(N(C)C4COC4)CC3)c12` [compound 751, 1-(4-fluorophenyl)-4-{4-[methyl(oxetan-3-yl)amino]piperidin-1-yl}-3-(propan-2-yl)-1H-pyrazolo[3,4-b]pyridine-6-carboxylic acid], the “% Activation” value is 400.2% and the EC50 is 1.59 µM.

Turning to `O=C(O)c1cc(N2CCCN(C3CCCC3)CC2)c2c(C3CCC3)nn(-c3ccccc3)c2n1` [compound 705, 3-cyclobutyl-4-(4-cyclopentyl-1,4-diazepan-1-yl)-1-phenyl-1H-pyrazolo[3,4-b]pyridine-6-carboxylic acid], the “% Activation” value is listed as 249.8% and the EC50 worked out at 1.67 µM.

As for `CCN(CC)CCCC1CCN(c2cc(C(=O)O)nc3c2c(C(C)C)nn3-c2ccc(F)cc2)CC1` [compound 747, 4-{4-[3-(diethylamino)propyl]piperidin-1-yl}-1-(4-fluorophenyl)-3-(propan-2-yl)-1H-pyrazolo[3,4-b]pyridine-6-carboxylic acid], the “% Activation” value is 475.3% and the EC50 was 1.67 µM.

On to `CC(C)c1nn(-c2ccc(F)cc2)c2nc(C(=O)O)cc(N3CCN(C4CCN(C5CC5)CC4)CC3)c12` [compound 743, 4-[4-(1-cyclopropylpiperidin-4-yl)piperazin-1-yl]-1-(4-fluorophenyl)-3-(propan-2-yl)-1H-pyrazolo[3,4-b]pyridine-6-carboxylic acid], for which the “% Activation” value amounted to 330.5% and the EC50 worked out at 1.24 µM.

For the origin of these results see patent publication US9796711B2, “Substituted pyrazolo[3,4-b]pyridin-6-carboxylic acids and method of use” (AbbVie S.àr.l., priority 2015, dated 2017).
